Measurements as given in publication PMC3059644 (Frontiers in Psychiatry, 2010).
Like-named read-outs stand apart in the source and are kept apart here.

What was measured:
adenosine A1 receptors = molecular target: adenosine A1 receptors; set-up: method as in Hutchison et al., 1989; conditions: ref Hutchison et al., 1989; cited from earlier work
adenosine A2A receptors = conditions: read-out: Ki for adenosine A2A receptors; ref Hutchison et al., 1989; cited from earlier work
[1] = system: [3H]CGS21680 binding sites; set-up: method as in Cunha et al., 1996, 1997; conditions: ref Cunha et al., 1996, 1997, cited from earlier work
[2] = system: adenosine A2A receptors versus A1 receptors; conditions: cited from earlier work
[3] = molecular target: T1, typical adenosine A2A receptors (Rattus norvegicus, UniProt P30543); experiment: [3H]CGS21680 specific binding in rat hippocampus in the presence of DPCPX (typical sites); conditions: DPCPX used to isolate typical sites
[4] = molecular target: atypical adenosine A2A receptors; experiment: Displacement of [3H]CGS21680 binding in rat striatum in the presence of CSC (atypical sites)
[5] = system: atypical adenosine A2A receptors; experiment: Displacement of [3H]CGS21680 binding in rat hippocampus in the presence of CSC (atypical sites)
Experimental: The collected tissues were homogenized in about 25 volumes of incubation buffer and centrifuged at 40,000 g for 10 min at 4°C. The pellet was resuspended in the same fresh buffer, homogenized, centrifuged once again and the final pellet stored at −80°C until use. […] Prior to the competition binding assay, the pellet was resuspended in appropriate buffer at the wanted protein concentration and membrane suspension incubated with 5 U/ml adenosine deaminase (ADA, Sigma-Aldrich) for 30 min at 37°C to remove endogenous adenosine. The protein concentration of membrane suspension was determined using the Bradford method (Pierce, Rockford, IL, USA) with bovine albumin as standard. Competition binding experiments with [^3H]CGS21680 were performed by incubating membranes (50–100 μg of protein/sample) with a single concentrations of [^3H]CGS21680 (30 nM) for 2 h at room temperature in a solution containing 50 mM Tris-HCl, pH 7.4, 10 mM MgCl2 and 5 U/ml ADA and various concentrations (ranging from 10^−5 to 10^−12 M) of test compounds. Non-specific binding was determined in the presence of an excess of cold 2-chloroadenosine (Sigma-Aldrich). The binding reactions were stopped by vacuum filtration through GF/B filters, followed by washing of the filters with ice-cold washing buffer (same composition as the binding buffer) and filter-bound radioactivity measured by scintillation spectrometry. Competition studies were performed with the various compounds alone or in the presence of an excess of either CSC or DPCPX (both from Sigma-Aldrich). The compounds were dissolved in 100% DMSO (Sigma-Aldrich) at a concentration of 10 mM and stored at −20°C. An intermediate 100 μM working solution was prepared in water and subsequent scalar working solutions in incubation buffer.

[6] = molecular target: T2, total adenosine A2A receptors (Rattus norvegicus, UniProt P30543); experiment: Displacement of [3H]CGS21680 binding in rat striatal membranes, compounds alone (total)
[7] = molecular target: T2, total adenosine A2A receptors; experiment: Displacement of [3H]CGS21680 binding in rat hippocampal membranes, compounds alone (total)
A1 and A2A receptors = conditions: transfected cells; ref Minetti et al., 2005; cited from earlier work
adenosine A2B receptor = conditions: cited from earlier work
[8] = molecular target: T1, typical adenosine A2A receptors; experiment: Displacement of [3H]CGS21680 binding in rat striatum in the presence of DPCPX (typical sites)

T1 sequence (P30543 whole entry): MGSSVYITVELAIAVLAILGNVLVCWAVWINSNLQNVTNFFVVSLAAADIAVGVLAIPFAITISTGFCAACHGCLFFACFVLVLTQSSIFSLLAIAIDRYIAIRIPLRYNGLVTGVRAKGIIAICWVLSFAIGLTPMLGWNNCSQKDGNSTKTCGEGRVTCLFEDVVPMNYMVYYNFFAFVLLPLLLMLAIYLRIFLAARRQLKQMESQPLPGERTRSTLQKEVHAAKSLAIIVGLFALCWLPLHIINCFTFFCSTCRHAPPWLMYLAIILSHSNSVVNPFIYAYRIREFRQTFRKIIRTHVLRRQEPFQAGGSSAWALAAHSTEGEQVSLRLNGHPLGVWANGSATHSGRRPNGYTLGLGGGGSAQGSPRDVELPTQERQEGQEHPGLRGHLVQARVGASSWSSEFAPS
T2 sequence (P30543 whole entry): as above

Structure (SMILES): CCNC(=O)[C@H]1O[C@@H](n2cnc3c(N)nc(NCCc4ccc(CCC(=O)O)cc4)nc32)[C@H](O)[C@@H]1O [CGS21680, 2-p-(2-carboxyethyl)phenethyl-amino-5’-N-ethylcarbox-amidoadenosine]
- Ki (adenosine A1 receptors): ~3100 nM
- Ki (adenosine A2A receptors): ~22 nM

Structure (SMILES): Cn1c(=O)c2c(nc(C=Cc3cccc(Cl)c3)n2C)n(C)c1=O [CSC, 8-(3-chlorostyryl)-caffeine]
- loss of potency in inhibiting [3H]CGS21680 binding in hippocampus and cortex versus striatal membranes [1]: 10 fold
- A2A/A1 selectivity ([2]; ref Jacobson et al., 1993): 520 fold

Structure (SMILES): CCCn1c(=O)c2[nH]c(C3CCCC3)nc2n(CCC)c1=O [DPCPX, 8-cyclopentyl-1,3-dipropylxanthine]
- concentrations displacing most of the [3H]CGS21680 binding in hippocampus and cortex ([1]; hippocampus and cortex, not striatum): low nanomolar concentrations
- effect on [3H]CGS21680 specific binding in hippocampus [3]: completely abolished

Structure (SMILES): CCCn1c(=O)c2c(nc(/C=C/c3ccc(OC)c(OC)c3)n2C)n(CCC)c1=O [KF17837, (E)-8-(3,4-dimethoxystyryl)-1,3-dipropyl-7-methylxanthine]
- loss of potency in inhibiting [3H]CGS21680 binding in hippocampus and cortex versus striatal membranes [1]: 10 fold
- A2A/A1 selectivity ([2]; ref Nonaka et al., 1994): 62 fold

Structure (SMILES): CCn1c(=O)c2c(nc(/C=C/c3ccc(OC)c(OC)c3)n2C)n(CC)c1=O [KW6002, (E)-1,3-diethyl-8-(3,4-dimethoxystyryl)-7-methyl-3,7-dihydro-1H-purine-2,6,dione, reference compound]
- Ki [4]: 74.2 nM
- decrease in affinity for atypical binding sites [4]: decreased from two to five fold
- binding in hippocampus in the presence of CSC [5]: no binding

Structure (SMILES): Nc1nc2c(cnn2CCc2ccccc2)c2nc(-c3ccco3)nn12 [SCH58261, reference compound]
- IC50 [6]: 16.7 nM
- Ki [6]: 4.8 nM
- difference in affinity values between striatum and hippocampus [7]: about 200 fold

Structure (SMILES): CCCCc1nc(N)c2nc(-n3nccn3)n(C)c2n1 [ST1535, 2 butyl-9-methyl-8-(2H-1,2,3-triazol 2-yl)-9H-purin-6-xylamine]
- IC50 ([6]; Figure 1, rat striatum, 30 nmol/L [3H]CGS21680, (95% CI), read-out: IC50): 79.6 nM
- Ki ([6]; rat striatal membranes, 30 nM [3H]CGS21680, mean (95% CI) of 3-4 experiments, read-out: Ki values (nM) in striatum, Total): 22.8 nM
- Hill coefficient, total striatal receptors ([6]; striatum, total): 0.7
- IC50 ([4]; Figure 3, rat striatum, 200 nmol/L CSC, (95% CI)): 256 nM
- Ki ([4]; rat striatal membranes, in the presence of CSC, mean (95% CI)): 73 nM
- decrease in affinity for atypical binding sites ([4]; striatum, atypical versus total and typical): decreased from two to five fold
- IC50 ([5]; Figure 5, rat hippocampus, 200 nmol/L CSC, (95% CI)): 446 nM
- binding in hippocampus in the presence of CSC ([5]; hippocampus, in the presence of CSC): displaced some affinity
- Ki ([5]; read-out: Ki values (nM) in hippocampus, Atypical, rat hippocampal membranes, in the presence of CSC, mean (95% CI)): 146 nM
- ratio between A1 and A2A receptors (A1 and A2A receptors): about 10 fold
- concentrations for A2B receptor higher than those for A2A receptors (adenosine A2B receptor; ref Stasi et al., 2006): about 3 fold
- Hill coefficients in the hippocampus ([7]; hippocampus): 0.6–0.8
- difference in affinity values between striatum and hippocampus ([7]; total A2A binding, hippocampus versus striatum): about 5 fold
- Hill Slope ([8]; Figure 2, rat striatum, 100 nmol/L DPCPX): -1.007
- IC50 ([8]; Figure 2, rat striatum, 100 nmol/L DPCPX, (95% CI)): 118 nM
- Ki ([8]; rat striatal membranes, in the presence of DPCPX, mean (95% CI)): 33.7 nM
- Hill coefficient, typical striatal receptors ([8]; striatum, typical): around the unit

Structure (SMILES): Nc1nc(NCCc2ccc(O)cc2)nc2nc(-c3ccco3)nn12 [ZM241385, reference compound]
- concentrations for A2B receptor higher than those for A2A receptors (adenosine A2B receptor; ref Linden et al., 1999): 22 fold
